Results as given in article PMC4545587 (Biochimica et biophysica acta, 2013).
No end group written: not given here.

Columns and labels:
[1] = system: Pseudomonas aeruginosa type 1; type: cell-based
eukaryotic cells = details: cited from earlier work

Q: Which “MIC value against P. aeruginosa” value ([1]; type 1) does the source give for KLFKRHLKWKII [SC4] here?
A: ~ 18 µM

Q: And the “P.a. LD50” value ([1]; type 1, pH 7)?
A: 0.14 µM

Q: What about the “lytic effect on eukaryotic cells” value (eukaryotic cells) of the same sequence?
A: no apparent lytic effect
